Experimental data from PubChem BioAssay (NCI).
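Briefly, cells in 96-well plates were exposed to five compound concentrations for 48 h, and endpoints were estimated by linear interpolation. TGI is the concentration that stops growth completely.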 Where a SMILES comes first, the peptide text is derived from it. The star is where a group is joined. Boc = CC(C)(C)OC(=O)*; OBn = c1ccc(CO*)cc1

Each molecule was assayed on HT29 colon (assay: NCI-60 cell line screen, 48 h).
For `CCN(CC)c1cc2c3c(c1)CCCN3CCC2`, the TGI was > 10 µM. For `O=c1[nH]n(Cc2ccccc2Cl)c2ccc([N+](=O)[O-])cc12`, the TGI was > 100 µM. With `CCOC(=O)CCC(NC(=O)c1ccc(CNc2nc3ccccc3nc2C(=O)OCC)cc1)C(=O)OCC` (configuration not stated) the TGI was > 100 µM. In the case of `O=C1c2ccccc2C(O)(C(=O)O)C1(O)CC=C(Cl)Cl` (configuration not stated), the TGI is reported as > 125 µM. `COc1cc(S(=O)(=O)Nc2nc(-c3ccc(N4C(=O)CSC4c4cccs4)cc3)cs2)ccc1Cl` (configuration not stated) was tested, and the TGI was > 100 µM. For `COC(=O)C(C)NP(=O)(N1CC1)N1CC1` (configuration not stated), the TGI was > 100 µM. In the case of `Ic1ncnc2c1ncn2C1CCCO1` (configuration not stated), the TGI is reported as > 100 µM. In the case of `CC12CCC3[C@@H](CC3(C)C)C(O)(CCC1=O)C2` (some centres not stated), the TGI is reported as > 100 µM. With `COc1cc(OCc2ccc3nc(-c4ccccc4)c(Cl)nc3c2)cc(OC)c1OC` the TGI was > 100 µM. `O=[n+]1c2ccccc2n([O-])c2ccccc21` was tested, and the TGI was > 100 µM. `CC(C)C(NC(=O)C(Cc1ccccc1)NC(=O)OC(C)(C)C)C(=O)NCC(=O)OCc1ccccc1` (stereo not drawn) (Boc-Phe-Val-Gly-OBn; configuration not given here) showed a TGI of 38.5 µM.

These molecules were tested on DU-145 prostate (assay: NCI-60 cell line screen, 48 h).
In the case of `CCN(CC)c1cc2c3c(c1)CCCN3CCC2`, the TGI is reported as > 10 µM. `O=c1[nH]n(Cc2ccccc2Cl)c2ccc([N+](=O)[O-])cc12` was tested, and the TGI was > 100 µM. In the case of `CCOC(=O)CCC(NC(=O)c1ccc(CNc2nc3ccccc3nc2C(=O)OCC)cc1)C(=O)OCC` (configuration not stated), the TGI is reported as > 100 µM. `COC1CC(C)C(OC)C2=CC(=O)C=C(NC(=O)/C(C)=C/C=C\C(C)C(OC(N)=O)/C(C)=C\C(C)C1OC)C2=O` (configuration not stated) was tested, and the TGI was 15.9 µM. With `COc1cc(S(=O)(=O)Nc2nc(-c3ccc(N4C(=O)CSC4c4cccs4)cc3)cs2)ccc1Cl` (configuration not stated) the TGI was > 100 µM. For `CC12CCC3[C@@H](CC3(C)C)C(O)(CCC1=O)C2` (some centres not stated), the TGI was > 100 µM. For `COc1cc(OCc2ccc3nc(-c4ccccc4)c(Cl)nc3c2)cc(OC)c1OC`, the TGI was > 100 µM. `O=[n+]1c2ccccc2n([O-])c2ccccc21` was tested, and the TGI was > 100 µM. With `CC(C)C(NC(=O)C(Cc1ccccc1)NC(=O)OC(C)(C)C)C(=O)NCC(=O)OCc1ccccc1` (stereo not drawn) (Boc-Phe-Val-Gly-OBn; configuration not given here) the TGI was 28.7 µM.

The molecules below were run on KM12 colon (assay: NCI-60 cell line screen, 48 h).
`CCN(CC)c1cc2c3c(c1)CCCN3CCC2` was tested, and the TGI was > 10 µM. In the case of `O=c1[nH]n(Cc2ccccc2Cl)c2ccc([N+](=O)[O-])cc12`, the TGI is reported as > 100 µM. For `CCOC(=O)CCC(NC(=O)c1ccc(CNc2nc3ccccc3nc2C(=O)OCC)cc1)C(=O)OCC` (configuration not stated), the TGI was > 100 µM. With `COC1CC(C)C(OC)C2=CC(=O)C=C(NC(=O)/C(C)=C/C=C\C(C)C(OC(N)=O)/C(C)=C\C(C)C1OC)C2=O` (configuration not stated) the TGI was 1.43 µM. For `O=C1c2ccccc2C(O)(C(=O)O)C1(O)CC=C(Cl)Cl` (configuration not stated), the TGI was > 125 µM. For `COc1cc(S(=O)(=O)Nc2nc(-c3ccc(N4C(=O)CSC4c4cccs4)cc3)cs2)ccc1Cl` (configuration not stated), the TGI was > 100 µM. For `COC(=O)C(C)NP(=O)(N1CC1)N1CC1` (configuration not stated), the TGI was > 100 µM. In the case of `Ic1ncnc2c1ncn2C1CCCO1` (configuration not stated), the TGI is reported as > 100 µM. With `CC12CCC3[C@@H](CC3(C)C)C(O)(CCC1=O)C2` (some centres not stated) the TGI was > 100 µM. In the case of `COc1cc(OCc2ccc3nc(-c4ccccc4)c(Cl)nc3c2)cc(OC)c1OC`, the TGI is reported as > 100 µM.

These molecules were tested on SK-MEL-5 melanoma (assay: NCI-60 cell line screen, 48 h).
For `CCN(CC)c1cc2c3c(c1)CCCN3CCC2`, the TGI was > 10 µM. `O=c1[nH]n(Cc2ccccc2Cl)c2ccc([N+](=O)[O-])cc12` was tested, and the TGI was 52.8 µM. For `CCOC(=O)CCC(NC(=O)c1ccc(CNc2nc3ccccc3nc2C(=O)OCC)cc1)C(=O)OCC` (configuration not stated), the TGI was > 100 µM. With `COC1CC(C)C(OC)C2=CC(=O)C=C(NC(=O)/C(C)=C/C=C\C(C)C(OC(N)=O)/C(C)=C\C(C)C1OC)C2=O` (configuration not stated) the TGI was 15 µM. For `O=C1c2ccccc2C(O)(C(=O)O)C1(O)CC=C(Cl)Cl` (configuration not stated), the TGI was > 125 µM. For `COc1cc(S(=O)(=O)Nc2nc(-c3ccc(N4C(=O)CSC4c4cccs4)cc3)cs2)ccc1Cl` (configuration not stated), the TGI was > 100 µM. In the case of `COC(=O)C(C)NP(=O)(N1CC1)N1CC1` (configuration not stated), the TGI is reported as > 100 µM. For `Ic1ncnc2c1ncn2C1CCCO1` (configuration not stated), the TGI was > 100 µM. In the case of `CC12CCC3[C@@H](CC3(C)C)C(O)(CCC1=O)C2` (some centres not stated), the TGI is reported as > 100 µM. For `COc1cc(OCc2ccc3nc(-c4ccccc4)c(Cl)nc3c2)cc(OC)c1OC`, the TGI was > 100 µM. With `O=[n+]1c2ccccc2n([O-])c2ccccc21` the TGI was > 100 µM.

Each molecule was assayed on OVCAR-4 ovarian (assay: NCI-60 cell line screen, 48 h).
For `CCN(CC)c1cc2c3c(c1)CCCN3CCC2`, the TGI was > 10 µM. With `O=c1[nH]n(Cc2ccccc2Cl)c2ccc([N+](=O)[O-])cc12` the TGI was > 100 µM. Molecule `COC1CC(C)C(OC)C2=CC(=O)C=C(NC(=O)/C(C)=C/C=C\C(C)C(OC(N)=O)/C(C)=C\C(C)C1OC)C2=O` (configuration not stated) has a TGI of 2.48 µM. In the case of `O=C1c2ccccc2C(O)(C(=O)O)C1(O)CC=C(Cl)Cl` (configuration not stated), the TGI is reported as > 125 µM. Work on `COc1cc(S(=O)(=O)Nc2nc(-c3ccc(N4C(=O)CSC4c4cccs4)cc3)cs2)ccc1Cl` (configuration not stated) yielded a TGI of 97.7 µM. `COC(=O)C(C)NP(=O)(N1CC1)N1CC1` (configuration not stated) was tested, and the TGI was > 100 µM.
